{"source": "patent US4455441A", "about": "“Attractant termiticidal compounds, compositions and methods of use therefor” (Research Foundation of State University of New York, priority 1982, dated 1984)", "key": {"Reticulitermes flavipes": {"test_system": "Reticulitermes flavipes", "test": "Bioassay of fluoroalkanols (Petri dish assay), termite toxicity", "format": "in vivo, Reticulitermes flavipes Kollar", "conditions": "quantity impregnated in filter pads required to cause 50% mortality at 3 days", "experimental": "Test compounds were dissolved in dry diethyl ether or dichloromethane and a 1.0 ml portion of the solution was pipetted onto a Gelman sterile 47-mm cellulose pad (Howard and Haverty, 1979). The ether was allowed to evaporate for 10 min, 1.0 ml of distilled water was added to the pad, and the pad was placed in a tight-sealing Gelman 50-mm plastic Petri dish.\nTermites (Reticulitermes flavipes Kollar) were collected from rotten logs and tree stumps on the Stony Brook campus. Colonies were kept in trash cans in an insectary (85% RH, 27° C.) for a period of about 6 months before use in this experiment. The experiments were performed in an incubator at +28° C. Undifferentiated larvae above the third instar (\"workers\") were used in all toxicity tests. Termites were first shaken loose from the interior of the wood, then transferred using mouth aspirators and with soft forceps. The termites were held on filter paper for 24 hours, twenty healthy termites were added to each dish, and the number of dead which were then removed to prevent cannibalism was recorded at daily intervals.\n^c Quantity of fluoro compound impregnated in filter pads required to\ncause 50% mortality at 3 days."}, "mice": {"test_system": "mice", "conditions": "based on Pattison (1959), cited from earlier work"}, "termites [1]": {"test_system": "termites", "test": "Maximum attractiveness (above 50% level)", "format": "in vivo"}, "termites [2]": {"test_system": "termites", "test": "Trail activity (trail following by termites)", "format": "in vivo", "conditions": "at 5 × 10^-6 g/10 c (highest conc. tested)", "from_the_text": "^a Value is minimum quantity (in grams) per 10 cm required to elicit\ntrailfollowing by a total of 8/20 termites in four trails.\n^b Maximum number of termites following at 5 × 10^-6 g/10 c\n(highest conc. tested)."}, "[3]": {"conditions": "estimate from comparison compound C12 satd."}, "[4]": {"conditions": "estimate from comparison compound C18 satd."}, "[5]": {"conditions": "saturated omega-fluoro compound"}}, "note": "Read-outs that look alike come from different tables or passages of the source."}
{"compound": "16-fluoro-Z/E 9-hexadecen-1-ol", "values": [{"measurement": "Median Lethal-dose", "setting": "Reticulitermes flavipes", "result": 0.020, "unit": "mg/dish"}, {"measurement": "Estimated LD50 (mice)", "setting": "mice; [3]", "result": 1.5, "unit": "mg/kg"}, {"measurement": "Estimated LD50 (mice)", "setting": "mice; [4]", "result": 4.0, "unit": "mg/kg"}]}
{"compound": "OCC/C=C\\CCCCCCF", "note": "[10-fluoro-(Z)-3-decen-1-ol]", "values": [{"measurement": "Median Lethal-dose", "setting": "Reticulitermes flavipes", "result": ".0095 mg/dish"}, {"measurement": "Estimated LD50 (mice)", "setting": "mice; estimate from comparison compound C10 satd.", "result": 1.0, "unit": "mg/kg"}]}
{"compound": "OCC/C=C\\CCCCCCCCF", "note": "[12-Fluoro-(Z)-3-dodecen-1-ol]", "values": [{"measurement": "Median Lethal-dose", "setting": "Reticulitermes flavipes", "result": ".0093 mg/dish"}, {"measurement": "Maximum attractiveness (above 50% level)", "setting": "termites [1]", "result": "10^-7 9"}, {"measurement": "Estimated LD50 (mice)", "setting": "mice; [3]", "result": 1.5, "unit": "mg/kg"}]}
{"compound": "OCC/C=C\\C/C=C\\CCCCCF", "note": "[12-fluoro-(Z),(Z)-3,6-dodecadien-1-ol]", "values": [{"measurement": "Median Lethal-dose", "setting": "Reticulitermes flavipes", "result": ".012 mg/dish"}, {"measurement": "Maximum attractiveness (above 50% level)", "setting": "termites [1]", "result": "10^-7 9"}, {"measurement": "Maximum attractiveness (above 50% level), minimum", "setting": "termites [1]; minimum", "result": "10^-8"}, {"measurement": "Estimated LD50 (mice)", "setting": "mice; [3]", "result": 1.5, "unit": "mg/kg"}]}
{"compound": "OCCCCCCCC/C=C/CCCCCCF", "note": "[16-fluoro-Z/E 9-hexadecen-1-ol]", "values": [{"measurement": "Median Lethal-dose", "setting": "Reticulitermes flavipes", "result": 0.024, "unit": "mg/dish"}, {"measurement": "Estimated LD50 (mice)", "setting": "mice; [3]", "result": 1.5, "unit": "mg/kg"}, {"measurement": "Estimated LD50 (mice)", "setting": "mice; [4]", "result": 4.0, "unit": "mg/kg"}]}
{"compound": "OCCCCCCCCCCCF", "note": "[F(CH2)10 CH2 OH]", "values": [{"measurement": "Median Lethal-dose", "setting": "Reticulitermes flavipes", "result": ".062 mg/dish"}, {"measurement": "Trail activity, maximum number of termites following", "setting": "termites [2]", "result": "6/20"}, {"measurement": "Estimated LD50 (mice)", "setting": "mice; [5]", "result": "> 100", "unit": "mg/kg"}]}
{"compound": "OCCCCCCCCCCCCF", "note": "[F(CH2)11 CH2 OH, 12-fluorododecan-1-ol]", "values": [{"measurement": "Median Lethal-dose", "setting": "Reticulitermes flavipes", "result": ".0077 mg/dish"}, {"measurement": "Trail activity, maximum number of termites following", "setting": "termites [2]", "result": "6/20"}, {"measurement": "Estimated LD50 (mice)", "setting": "mice; [5]", "result": 1.5, "unit": "mg/kg"}]}
